Measurements as given in PubChem BioAssay AID1259407 (Chemical Carcinogenesis Research Information System (CCRIS), 2018).
Calls of active or inactive are those of the source. The rule behind the calls is not given here.

Test system: CCRIS mutagenicity, Ames/micronucleus/aberration tests
Experiment: CCRIS mutagenicity studies
[1] = Test System: AMES SALMONELLA TYPHIMURIUM, Strain/Indicator: TA98, Metabolic Activation: NONE, Method: PREINCUBATION
[2] = Test System: AMES SALMONELLA TYPHIMURIUM, Strain/Indicator: TA98, Metabolic Activation: RAT, LIVER, S-9, AROCLOR 1254 (10%), Method: PREINCUBATION
[3] = Test System: AMES SALMONELLA TYPHIMURIUM, Strain/Indicator: TA98, Metabolic Activation: RAT, LIVER, S-9, AROCLOR 1254, Method: STANDARD PLATE
[4] = Test System: AMES SALMONELLA TYPHIMURIUM, Strain/Indicator: TA100, Metabolic Activation: NONE, Method: PREINCUBATION
[5] = Test System: AMES SALMONELLA TYPHIMURIUM, Strain/Indicator: TA100, Metabolic Activation: RAT, LIVER, S-9, AROCLOR 1254 (10%), Method: PREINCUBATION
[6] = Test System: AMES SALMONELLA TYPHIMURIUM, Strain/Indicator: TA98, Metabolic Activation: RAT, LIVER, S-9, KANECHLOR 500, Method: PREINCUBATION
[7] = Test System: AMES SALMONELLA TYPHIMURIUM, Strain/Indicator: TA100, Metabolic Activation: RAT, LIVER, S-9, AROCLOR 1254, Method: STANDARD PLATE

SMILES: c1ccoc1
- mutagenic call (End Point: In vitro micronucleus, Test System: Human lymphocytes, Metabolic Activation: None): inactive; negative
- mutagenic call (End Point: In vitro micronucleus, Test System: Human lymphocytes, Metabolic Activation: Rat, liver, S-9, Aroclor 1254): inactive; negative
- mutagenic call (End Point: In vitro micronucleus, Test System: Mouse lymphoma L5178Y cells, Metabolic Activation: None): inactive; negative
- mutagenic call (End Point: In vivo micronucleus, Test System: Peripheral blood erythrocytes, Species: Mouse, Strain/Sex: Balb/C/Male, Route: Intraperitoneal): inactive; negative
- mutagenic call (End Point: In vivo micronucleus, Test System: Peripheral blood erythrocytes, Species: Mouse, Strain/Sex: Balb/C/Male, Route: Subcutaneous): inactive; negative
- mutagenic call (Test System: AMES SALMONELLA TYPHIMURIUM, Strain/Indicator: TA98, Metabolic Activation: HAMSTER, LIVER, S-9, AROCLOR 1254 (10%), Method: PREINCUBATION): inactive; negative
- mutagenic call [1]: inactive; negative
- mutagenic call [2]: inactive; negative
- mutagenic call [3]: inactive; negative
- mutagenic call (Test System: AMES SALMONELLA TYPHIMURIUM, Strain/Indicator: TA98, Metabolic Activation: S-9, Method: STANDARD PLATE): active; positive
- mutagenic call (Test System: AMES SALMONELLA TYPHIMURIUM, Strain/Indicator: TA100, Metabolic Activation: HAMSTER, LIVER, S-9, AROCLOR 1254 (10%), Method: PREINCUBATION): inactive; negative
- mutagenic call [4]: inactive; negative
- mutagenic call [5]: inactive; negative
- mutagenic call (Test System: AMES SALMONELLA TYPHIMURIUM, Strain/Indicator: TA100, Metabolic Activation: S-9, Method: STANDARD PLATE): inactive; negative
- mutagenic call (Test System: AMES SALMONELLA TYPHIMURIUM, Strain/Indicator: TA1535, Metabolic Activation: HAMSTER, LIVER, S-9, AROCLOR 1254 (10%), Method: PREINCUBATION): inactive; negative
- mutagenic call (Test System: AMES SALMONELLA TYPHIMURIUM, Strain/Indicator: TA1535, Metabolic Activation: NONE, Method: PREINCUBATION): inactive; negative
- mutagenic call (Test System: AMES SALMONELLA TYPHIMURIUM, Strain/Indicator: TA1535, Metabolic Activation: RAT, LIVER, S-9, AROCLOR 1254 (10%), Method: PREINCUBATION): inactive; negative
- mutagenic call (Test System: AMES SALMONELLA TYPHIMURIUM, Strain/Indicator: TA1537, Metabolic Activation: HAMSTER, LIVER, S-9, AROCLOR 1254 (10%), Method: PREINCUBATION): inactive; negative
- mutagenic call (Test System: AMES SALMONELLA TYPHIMURIUM, Strain/Indicator: TA1537, Metabolic Activation: NONE, Method: PREINCUBATION): inactive; negative
- mutagenic call (Test System: AMES SALMONELLA TYPHIMURIUM, Strain/Indicator: TA1537, Metabolic Activation: RAT, LIVER, S-9, AROCLOR 1254 (10%), Method: PREINCUBATION): inactive; negative
- mutagenic call (Test System: Mouse lymphoma, Strain/Indicator: L5178Y (tk+/tk-), Metabolic Activation: None, Method: Preincubation): inactive; negative

SMILES: O=Nc1ccc(Sc2ccccc2)cc1
- mutagenic call (Test System: AMES SALMONELLA TYPHIMURIUM, Strain/Indicator: TA98(NR), Metabolic Activation: NONE, Method: STANDARD PLATE): active; positive
- mutagenic call (Test System: AMES SALMONELLA TYPHIMURIUM, Strain/Indicator: TA98, Metabolic Activation: NONE, Method: STANDARD PLATE): active; positive
- mutagenic call [3]: active; positive

SMILES: CCc1c2ccccc2cc2c1c1c(c3ccccc32)O1
- mutagenic call [1]: active; positive

SMILES: Nc1nc2c(ncn2COCCO)c(=O)[nH]1
- mutagenic call (End Point: IN VITRO CHROMOSOMAL ABERRATIONS, Test System: CHO CELLS (CHO-HSVTK), Metabolic Activation: NONE): active; positive (structural changes); concentration chosen also induced apoptosis

SMILES: CCn1c2ccccc2c2ccccc21
- mutagenic call (Test System: UDS PRIMARY RAT HEPATOCYTES, Strain/Indicator: THY INCORP, Metabolic Activation: NONE, Method: AUTORADIOGRAPHY): active; positive

SMILES: COC(=O)c1ccc(/C=N/n2nnc3c([nH]c4ccccc43)c2=O)cc1
- mutagenic call (Test System: AMES SALMONELLA TYPHIMURIUM, Strain/Indicator: TA97, Metabolic Activation: NONE, Method: PREINCUBATION): active; positive
- mutagenic call (Test System: AMES SALMONELLA TYPHIMURIUM, Strain/Indicator: TA97, Metabolic Activation: RAT, LIVER, S-9, AROCLOR 1254 (10%), Method: PREINCUBATION): active; positive
- mutagenic call [1]: active; positive
- mutagenic call [2]: active; positive
- mutagenic call [4]: inactive; negative
- mutagenic call [5]: active; positive
- mutagenic call (Test System: AMES SALMONELLA TYPHIMURIUM, Strain/Indicator: TA102, Metabolic Activation: NONE, Method: PREINCUBATION): inactive; negative
- mutagenic call (Test System: AMES SALMONELLA TYPHIMURIUM, Strain/Indicator: TA102, Metabolic Activation: RAT, LIVER, S-9, AROCLOR 1254 (10%), Method: PREINCUBATION): active; positive

SMILES: Cc1cccc([N+](=O)[O-])c1C
- mutagenic call [1]: inactive; negative
- mutagenic call [6]: inactive; negative
- mutagenic call [4]: inactive; negative
- mutagenic call (Test System: AMES SALMONELLA TYPHIMURIUM, Strain/Indicator: TA100, Metabolic Activation: RAT, LIVER, S-9, KANECHLOR 500, Method: PREINCUBATION): inactive; negative

SMILES: O=NN(CCCl)C(=O)NCCO
- mutagenic call (Test System: AMES SALMONELLA TYPHIMURIUM, Strain/Indicator: TA1535, Metabolic Activation: NONE, Method: STANDARD PLATE): active; positive

SMILES: COc1ccc2oc([N+](=O)[O-])cc2c1N(CCCl)CCCl
- mutagenic call (Test System: AMES SALMONELLA TYPHIMURIUM, Strain/Indicator: TA100(NR), Metabolic Activation: NONE, Method: STANDARD PLATE): active; positive
- mutagenic call (Test System: AMES SALMONELLA TYPHIMURIUM, Strain/Indicator: TA100(NR), Metabolic Activation: RAT, LIVER, S-9, AROCLOR 1254, Method: STANDARD PLATE): active; positive
- mutagenic call (Test System: AMES SALMONELLA TYPHIMURIUM, Strain/Indicator: TA100, Metabolic Activation: NONE, Method: STANDARD PLATE): active; positive
- mutagenic call [7]: active; positive

SMILES: COc1ccc2c(OC)c3ccoc3nc2c1OC
- mutagenic call (Test System: AMES SALMONELLA TYPHIMURIUM, Strain/Indicator: TA98, Metabolic Activation: RAT, LIVER, MICROSOMES, PHENOBARBITAL, Method: STANDARD PLATE): active; positive
- mutagenic call (Test System: AMES SALMONELLA TYPHIMURIUM, Strain/Indicator: TA98, Metabolic Activation: RAT, LIVER, S-9, PHENOBARBITAL, Method: STANDARD PLATE): active; positive
- mutagenic call (Test System: AMES SALMONELLA TYPHIMURIUM, Strain/Indicator: TA100, Metabolic Activation: RAT, LIVER, MICROSOMES, PHENOBARBITAL, Method: STANDARD PLATE): active; positive
- mutagenic call (Test System: AMES SALMONELLA TYPHIMURIUM, Strain/Indicator: TA100, Metabolic Activation: RAT, LIVER, S-9, PHENOBARBITAL, Method: STANDARD PLATE): active; positive
- mutagenic call (Test System: AMES SALMONELLA TYPHIMURIUM, Strain/Indicator: TA1535, Metabolic Activation: RAT, LIVER, MICROSOMES, PHENOBARBITAL, Method: STANDARD PLATE): inactive; negative
- mutagenic call (Test System: AMES SALMONELLA TYPHIMURIUM, Strain/Indicator: TA1538, Metabolic Activation: RAT, LIVER, MICROSOMES, PHENOBARBITAL, Method: STANDARD PLATE): inactive; negative

SMILES: Cc1cc(-c2ccc(N/N=C3\C=Cc4c(S(=O)(=O)O)cc(S(=O)(=O)O)c(N)c4C3=O)c(C)c2)ccc1N/N=C1\C=Cc2c(S(=O)(=O)O)cc(S(=O)(=O)O)c(N)c2C1=O
- mutagenic call (Test System: AMES SALMONELLA TYPHIMURIUM, Strain/Indicator: TA98, Metabolic Activation: HAMSTER, LIVER, S-9, Method: PREINCUBATION (PRIVAL METHOD)): active; positive
- mutagenic call (Test System: AMES SALMONELLA TYPHIMURIUM, Strain/Indicator: TA100, Metabolic Activation: HAMSTER, LIVER, S-9, Method: PREINCUBATION (PRIVAL METHOD)): active; positive
- mutagenic call (Test System: MOUSE LYMPHOMA, Strain/Indicator: L5178Y (TK+/TK-), Metabolic Activation: NONE, Method: SUSPENSION/PLATE): active; positive. reevaluation of results: equivocal
- mutagenic call (Test System: Mouse lymphoma, Strain/Indicator: L5178Y (tk+/tk-), Metabolic Activation: Rat, Liver, S-9, Aroclor 1254, Method: Suspension/plate): inactive; negative

SMILES: CCN(CC)CC(=O)Nc1c(C(=O)c2ccccc2F)c(C)nn1C
- mutagenic call (Test System: AMES SALMONELLA TYPHIMURIUM, Strain/Indicator: TA98, Metabolic Activation: RAT, LIVER, S-9, AROCLOR 1254, Method: PREINCUBATION): active; positive
- mutagenic call [3]: inactive; negative
- mutagenic call (Test System: AMES SALMONELLA TYPHIMURIUM, Strain/Indicator: TA100, Metabolic Activation: RAT, LIVER, S-9, AROCLOR 1254, Method: PREINCUBATION): active; positive
- mutagenic call [7]: inactive; negative

SMILES: Cc1ccc([N+](=O)[O-])c(C)c1
- mutagenic call [1]: inactive; negative
- mutagenic call [6]: inactive; negative
- mutagenic call [4]: inactive; negative
